{"source": "ChEMBL document CHEMBL1201862", "about": "“PubChem BioAssay data set” (2004)", "key": {"[1]": {"assay": "A cytotoxicity screen of small molecule inhibitors of the PhoP region in Salmonella typhi identified in the primary screen. [Related pubchem assays: 1850, 1864, 1985 ]", "assay_type": "functional"}, "[2]": {"target": "T1, Replicative DNA helicase DnaB (Mycobacterium tuberculosis, UniProt P9WMR3)", "T1 sequence (P9WMR3 whole entry)": "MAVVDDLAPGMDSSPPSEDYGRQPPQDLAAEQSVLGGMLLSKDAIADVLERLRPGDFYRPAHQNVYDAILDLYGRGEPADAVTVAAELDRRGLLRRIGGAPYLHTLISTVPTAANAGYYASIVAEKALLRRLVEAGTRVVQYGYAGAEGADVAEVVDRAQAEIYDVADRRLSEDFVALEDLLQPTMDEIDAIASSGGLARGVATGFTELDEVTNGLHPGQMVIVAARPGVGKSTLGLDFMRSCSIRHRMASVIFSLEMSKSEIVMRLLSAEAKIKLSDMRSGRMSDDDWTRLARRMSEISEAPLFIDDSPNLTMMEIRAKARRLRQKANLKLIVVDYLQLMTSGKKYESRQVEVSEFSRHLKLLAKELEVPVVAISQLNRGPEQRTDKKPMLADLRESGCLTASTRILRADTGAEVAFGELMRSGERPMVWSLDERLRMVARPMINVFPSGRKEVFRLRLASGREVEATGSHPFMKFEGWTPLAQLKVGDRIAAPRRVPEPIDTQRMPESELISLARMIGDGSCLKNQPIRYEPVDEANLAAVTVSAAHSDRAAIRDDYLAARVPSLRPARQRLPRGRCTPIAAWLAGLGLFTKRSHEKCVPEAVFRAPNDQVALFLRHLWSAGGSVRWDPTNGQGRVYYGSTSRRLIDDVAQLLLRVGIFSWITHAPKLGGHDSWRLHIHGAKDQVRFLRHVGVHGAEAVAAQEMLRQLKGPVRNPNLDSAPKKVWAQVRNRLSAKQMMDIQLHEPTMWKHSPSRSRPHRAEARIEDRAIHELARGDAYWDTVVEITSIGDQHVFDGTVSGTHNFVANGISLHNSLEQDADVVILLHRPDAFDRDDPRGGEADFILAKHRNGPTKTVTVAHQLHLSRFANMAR", "assay": "DnaB intein splicing inhibitors, dose response, biochemical, cell-free fluorescence (AID 449749)", "assay_type": "functional"}, "Protein RecA": {"target": "T2, Protein RecA (Mycobacterium tuberculosis, UniProt P9WHJ3)", "T2 sequence (P9WHJ3 whole entry)": "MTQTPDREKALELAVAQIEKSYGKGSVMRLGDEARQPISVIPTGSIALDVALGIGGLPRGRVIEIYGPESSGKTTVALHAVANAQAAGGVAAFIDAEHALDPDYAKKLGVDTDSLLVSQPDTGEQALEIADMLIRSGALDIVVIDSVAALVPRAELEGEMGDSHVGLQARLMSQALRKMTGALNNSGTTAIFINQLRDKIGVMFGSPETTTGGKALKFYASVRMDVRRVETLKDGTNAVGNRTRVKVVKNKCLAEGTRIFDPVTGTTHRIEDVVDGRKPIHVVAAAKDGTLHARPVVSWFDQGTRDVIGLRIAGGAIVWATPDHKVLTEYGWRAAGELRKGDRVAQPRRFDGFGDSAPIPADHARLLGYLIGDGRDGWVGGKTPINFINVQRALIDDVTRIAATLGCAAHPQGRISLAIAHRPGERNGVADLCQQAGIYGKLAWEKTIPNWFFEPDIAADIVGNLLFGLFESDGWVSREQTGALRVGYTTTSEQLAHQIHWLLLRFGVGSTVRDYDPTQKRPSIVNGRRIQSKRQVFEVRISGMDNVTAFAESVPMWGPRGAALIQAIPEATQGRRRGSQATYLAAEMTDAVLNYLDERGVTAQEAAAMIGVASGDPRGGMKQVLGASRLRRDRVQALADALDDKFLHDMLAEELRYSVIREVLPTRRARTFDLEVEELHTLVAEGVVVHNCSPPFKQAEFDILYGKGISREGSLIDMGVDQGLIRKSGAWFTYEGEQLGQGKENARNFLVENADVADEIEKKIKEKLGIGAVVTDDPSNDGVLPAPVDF", "assay": "Fluorescence Cell-Free Homogeneous Dose Retest to Identify Inhibitors of RecA-Intein Splicing Activity. [Related pubchem assays (depositor defined):AID2097, AID2223, AID489010, AID492950]", "assay_type": "functional"}, "[3]": {"target": "Acyl-homoserine lactone acylase PvdQ (Pseudomonas aeruginosa (strain LESB58), UniProt Q9I194)", "sequence (Q9I194 24-193 limits assumed)": "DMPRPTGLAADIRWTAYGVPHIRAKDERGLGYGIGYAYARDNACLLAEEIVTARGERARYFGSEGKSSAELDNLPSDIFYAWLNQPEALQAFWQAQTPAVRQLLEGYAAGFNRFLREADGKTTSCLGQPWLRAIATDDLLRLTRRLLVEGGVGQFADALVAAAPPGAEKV", "sequence (Q9I194 217-762 limits assumed)": "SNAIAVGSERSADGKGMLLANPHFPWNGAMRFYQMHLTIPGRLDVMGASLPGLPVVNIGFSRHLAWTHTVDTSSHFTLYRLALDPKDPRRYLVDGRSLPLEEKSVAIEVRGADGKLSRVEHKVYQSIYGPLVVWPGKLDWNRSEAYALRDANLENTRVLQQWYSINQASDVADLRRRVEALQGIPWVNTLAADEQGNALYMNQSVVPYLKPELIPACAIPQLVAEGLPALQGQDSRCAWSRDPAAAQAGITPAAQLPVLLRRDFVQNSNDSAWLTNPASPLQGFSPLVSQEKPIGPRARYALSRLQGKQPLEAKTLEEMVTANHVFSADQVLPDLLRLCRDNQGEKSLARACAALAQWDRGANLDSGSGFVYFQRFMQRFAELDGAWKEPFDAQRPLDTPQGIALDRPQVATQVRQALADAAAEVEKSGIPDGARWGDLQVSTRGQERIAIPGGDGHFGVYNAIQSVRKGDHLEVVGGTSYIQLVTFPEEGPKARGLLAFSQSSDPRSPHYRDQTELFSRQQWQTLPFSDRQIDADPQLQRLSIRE", "assay": "P. aeruginosa PvdQ acylase inhibitors, dose response, biochemical, fluorescence, plate reader and imaging, cherry-picks (AID 493231)"}, "[4]": {"target": "Peroxisome proliferator-activated receptor gamma/Nuclear receptor coactivator 3 (Homo sapiens, UniProt P37231)", "assay_type": "functional"}, "[5]": {"target": "Peroxisome proliferator-activated receptor gamma/Nuclear receptor corepressor 2 (Homo sapiens, UniProt P37231+Q9Y618)", "assay_type": "functional"}, "[6]": {"target": "Photoreceptor-specific nuclear receptor (Homo sapiens, UniProt Q9Y5X4)", "sequence (Q9Y5X4 whole entry)": "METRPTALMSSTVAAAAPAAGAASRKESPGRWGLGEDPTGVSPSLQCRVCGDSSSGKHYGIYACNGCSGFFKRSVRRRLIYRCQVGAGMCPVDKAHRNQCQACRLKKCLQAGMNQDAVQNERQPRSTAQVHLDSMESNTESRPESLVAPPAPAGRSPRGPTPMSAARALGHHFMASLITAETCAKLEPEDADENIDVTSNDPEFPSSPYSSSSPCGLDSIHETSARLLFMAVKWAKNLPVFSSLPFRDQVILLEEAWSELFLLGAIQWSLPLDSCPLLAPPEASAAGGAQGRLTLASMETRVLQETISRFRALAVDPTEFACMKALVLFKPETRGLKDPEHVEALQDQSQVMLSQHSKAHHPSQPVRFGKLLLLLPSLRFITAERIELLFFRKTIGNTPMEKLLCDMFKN", "assay_type": "functional"}, "[7]": {"target": "Peroxisome proliferator-activated receptor gamma/Nuclear receptor coactivator 2 (Homo sapiens, UniProt P37231)", "sequence (P37231 whole entry)": "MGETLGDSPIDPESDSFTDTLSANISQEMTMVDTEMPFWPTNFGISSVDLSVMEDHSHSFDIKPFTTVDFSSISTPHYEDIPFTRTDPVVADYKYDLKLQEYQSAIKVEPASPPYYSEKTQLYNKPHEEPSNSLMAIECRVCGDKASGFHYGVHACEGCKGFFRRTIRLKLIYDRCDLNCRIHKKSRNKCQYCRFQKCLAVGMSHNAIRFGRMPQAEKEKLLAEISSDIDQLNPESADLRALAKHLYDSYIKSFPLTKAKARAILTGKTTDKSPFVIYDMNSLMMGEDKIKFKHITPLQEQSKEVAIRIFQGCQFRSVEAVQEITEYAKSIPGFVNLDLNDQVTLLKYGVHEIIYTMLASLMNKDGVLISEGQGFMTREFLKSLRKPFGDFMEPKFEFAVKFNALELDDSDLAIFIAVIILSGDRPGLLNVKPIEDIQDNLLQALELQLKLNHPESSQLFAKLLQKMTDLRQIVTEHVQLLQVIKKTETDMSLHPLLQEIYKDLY", "sequence (Q15596 whole entry, further chain)": "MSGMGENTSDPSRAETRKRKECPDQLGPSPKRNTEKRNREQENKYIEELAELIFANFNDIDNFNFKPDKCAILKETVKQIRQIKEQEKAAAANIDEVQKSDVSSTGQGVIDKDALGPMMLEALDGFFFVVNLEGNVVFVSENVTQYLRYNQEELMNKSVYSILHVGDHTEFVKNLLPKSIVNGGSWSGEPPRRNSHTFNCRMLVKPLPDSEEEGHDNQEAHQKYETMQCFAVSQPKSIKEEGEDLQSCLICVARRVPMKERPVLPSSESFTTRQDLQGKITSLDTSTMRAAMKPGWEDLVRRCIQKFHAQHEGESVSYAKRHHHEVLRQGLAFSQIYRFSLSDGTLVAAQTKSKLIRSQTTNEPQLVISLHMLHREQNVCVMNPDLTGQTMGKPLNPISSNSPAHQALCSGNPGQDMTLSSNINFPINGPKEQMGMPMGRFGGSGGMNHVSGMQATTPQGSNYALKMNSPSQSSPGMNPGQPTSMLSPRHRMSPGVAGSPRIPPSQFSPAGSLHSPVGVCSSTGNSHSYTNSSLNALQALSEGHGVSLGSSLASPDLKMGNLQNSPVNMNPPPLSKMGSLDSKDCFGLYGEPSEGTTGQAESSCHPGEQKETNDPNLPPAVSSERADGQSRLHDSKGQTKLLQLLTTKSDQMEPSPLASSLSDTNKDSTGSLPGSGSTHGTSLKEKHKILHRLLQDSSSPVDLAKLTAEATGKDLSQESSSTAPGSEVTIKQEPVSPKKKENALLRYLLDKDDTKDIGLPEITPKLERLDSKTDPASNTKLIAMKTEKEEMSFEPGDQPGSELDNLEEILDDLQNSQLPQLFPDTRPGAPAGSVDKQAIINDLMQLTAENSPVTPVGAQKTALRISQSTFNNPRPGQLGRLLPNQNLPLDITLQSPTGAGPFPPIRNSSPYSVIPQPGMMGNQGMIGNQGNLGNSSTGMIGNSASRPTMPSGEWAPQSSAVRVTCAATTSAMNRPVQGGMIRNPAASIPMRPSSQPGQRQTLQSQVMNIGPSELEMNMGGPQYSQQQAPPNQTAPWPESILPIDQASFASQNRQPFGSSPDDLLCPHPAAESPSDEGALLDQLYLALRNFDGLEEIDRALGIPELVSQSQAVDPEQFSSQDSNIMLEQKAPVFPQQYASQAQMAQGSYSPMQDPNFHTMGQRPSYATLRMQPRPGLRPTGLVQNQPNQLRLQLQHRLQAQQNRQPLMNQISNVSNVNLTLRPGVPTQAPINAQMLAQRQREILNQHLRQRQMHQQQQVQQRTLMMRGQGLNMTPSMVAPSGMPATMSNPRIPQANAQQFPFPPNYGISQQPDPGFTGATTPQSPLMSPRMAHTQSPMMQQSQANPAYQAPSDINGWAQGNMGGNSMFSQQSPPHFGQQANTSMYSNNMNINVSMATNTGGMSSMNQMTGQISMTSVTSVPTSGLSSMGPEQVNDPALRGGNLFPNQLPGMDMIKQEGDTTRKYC", "assay_type": "functional"}, "[8]": {"target": "Peroxisome proliferator-activated receptor gamma/Nuclear receptor coactivator 1 (Homo sapiens, UniProt P37231)", "sequence (P37231 whole entry)": "as the sequence (P37231 whole entry) above", "sequence (Q15788 whole entry, further chain)": "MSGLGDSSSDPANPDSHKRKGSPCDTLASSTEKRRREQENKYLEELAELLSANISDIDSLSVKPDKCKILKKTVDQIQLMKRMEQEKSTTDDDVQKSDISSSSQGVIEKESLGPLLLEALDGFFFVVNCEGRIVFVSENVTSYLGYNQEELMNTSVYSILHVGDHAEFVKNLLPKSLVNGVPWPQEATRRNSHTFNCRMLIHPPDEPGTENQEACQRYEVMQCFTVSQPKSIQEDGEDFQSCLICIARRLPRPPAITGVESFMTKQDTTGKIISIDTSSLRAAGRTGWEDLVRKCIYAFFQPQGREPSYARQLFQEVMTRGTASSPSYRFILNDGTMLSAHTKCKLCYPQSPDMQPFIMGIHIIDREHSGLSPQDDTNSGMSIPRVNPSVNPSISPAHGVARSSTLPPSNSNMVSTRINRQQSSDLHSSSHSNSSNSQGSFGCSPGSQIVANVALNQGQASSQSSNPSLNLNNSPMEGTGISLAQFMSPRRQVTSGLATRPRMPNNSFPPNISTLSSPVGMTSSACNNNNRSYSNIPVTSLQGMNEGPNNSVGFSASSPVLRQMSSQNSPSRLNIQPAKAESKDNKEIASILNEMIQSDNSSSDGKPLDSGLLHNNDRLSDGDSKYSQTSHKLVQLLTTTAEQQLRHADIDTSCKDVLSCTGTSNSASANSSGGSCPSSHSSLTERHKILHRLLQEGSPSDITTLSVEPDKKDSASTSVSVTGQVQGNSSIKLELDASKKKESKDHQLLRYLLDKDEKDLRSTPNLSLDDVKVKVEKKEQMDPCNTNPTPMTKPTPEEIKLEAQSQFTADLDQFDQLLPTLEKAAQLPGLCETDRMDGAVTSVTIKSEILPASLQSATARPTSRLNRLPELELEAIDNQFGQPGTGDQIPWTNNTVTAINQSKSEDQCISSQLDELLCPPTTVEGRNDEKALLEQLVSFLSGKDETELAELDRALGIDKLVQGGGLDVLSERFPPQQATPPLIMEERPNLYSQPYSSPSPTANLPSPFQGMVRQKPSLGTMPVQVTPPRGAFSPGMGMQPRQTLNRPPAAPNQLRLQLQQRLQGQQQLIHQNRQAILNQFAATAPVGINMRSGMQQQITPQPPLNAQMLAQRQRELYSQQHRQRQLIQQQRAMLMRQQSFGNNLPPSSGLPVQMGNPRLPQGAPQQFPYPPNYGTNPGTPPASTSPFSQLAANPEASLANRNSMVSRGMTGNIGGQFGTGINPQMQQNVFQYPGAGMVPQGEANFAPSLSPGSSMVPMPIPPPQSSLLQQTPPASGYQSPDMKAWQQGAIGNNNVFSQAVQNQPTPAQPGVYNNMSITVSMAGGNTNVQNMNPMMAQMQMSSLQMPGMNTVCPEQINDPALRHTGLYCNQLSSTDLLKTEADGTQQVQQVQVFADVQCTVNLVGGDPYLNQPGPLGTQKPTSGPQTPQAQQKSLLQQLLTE", "assay_type": "functional"}}, "note": "The source made the active and inactive calls."}
{"compound": "COc1ccc(C2C(C#N)=C(N)Oc3[nH]nc(C)c32)cc1CSc1ccccn1", "note": "(centres undefined)", "values": [{"measurement": "EC50", "setting": "[1]", "result": "> 50 µM (active)"}, {"measurement": "AC50", "setting": "[2]", "result": "9.71 µM (active)"}, {"measurement": "EC50", "setting": "Protein RecA", "result": "6.32 µM (active)"}]}
{"compound": "O=[N+]([O-])c1ccc(N2CCCCC2)cc1", "values": [{"measurement": "AC50", "setting": "[3]", "result": "6.52 µM (active)"}]}
{"compound": "CCc1cc2cc3c(cc2nc1SCC(=O)Nc1cc(C)on1)OCO3", "values": [{"measurement": "EC50", "setting": "[4]", "result": "> 79.4 µM (not active)"}, {"measurement": "IC50", "setting": "[5]", "result": "1.54 µM (active)"}, {"measurement": "IC50", "setting": "[6]", "result": "> 39.8 µM (not active)"}, {"measurement": "EC50", "setting": "[7]", "result": "> 79.4 µM (not active)"}, {"measurement": "EC50", "setting": "[8]", "result": "> 79.4 µM (not active)"}]}
